Read-outs that look alike come from different tables or passages of the source.
Assays:
A549 = experiment: Cell proliferation IC50, Crystal Violet assay; type: cell-based, human; details: 72 h
[1] = system: A549/DDP (Cisplatin Resistant); experiment: Cell proliferation IC50, Crystal Violet assay; type: cell-based, human; details: 72 h
CA-46 = experiment: Lymphoma cell growth IC50 (MTT); type: cell-based, human
From the text: (§1) Exemplary Embodiments are generally performed as follows, unless otherwise noted. Simvastatin is purchased from Ark Pharm, Inc. (Arlington Heights, IL). Cisplatin (CIS) is purchased from MedKoo Biosciences, Inc. (Chapel Hill, NC). Dihydroartemisinin is purchased from TCI America (Portland, OR). All other chemicals and reagents are purchased from standard sources such as Sigma-Aldrich and/or VWR and are of highest quality available. Puromycin dihydrochloride was purchased from Alfa Aesar (Tewksbury, MA). Deionized water ([…]) used for making solutions is obtained from Milli-Q Direct Ultrapure Water System from Millipore (Billerica, MA, USA). All intermediates are characterized by 1H NMR and mass analysis and the purity of compounds are analyzed by HPLC. 1H NMR data are collected on Bruker 400 MHz spectrometers using standard parameters; chemical shifts are reported in ppm (δ) in reference to residual non-deuterated solvent. ESI mass spectroscopy analysis is performed using a Thermo Fisher LTQ Orbitrap Elite system. IC50 is the half maximal inhibitory concentration and determined is determined by crystal violet assay unless otherwise noted.
(§2) The crystal violet assay is performed as follows, unless otherwise noted. Cell lines are supplemented with RPMI 1640 medium, 10% fetal bovine serum, 1% PenStrep, and placed in a humidified atmosphere containing 5% CO2 at 37° C. 5,000 cells/well renal cancer cells and 10,000 cells/well lymphoma cells are seeded in 96 well plates in 100 microliter medium/per well for 24 h. […] Renal cancer cells are fixed with 3.7% paraformaldehyde for 15 minutes and are stained with Crystal violet solution (0.5% in 25% methanol) for 30 minutes. After rinsing with water cell layers are dried and decolorized with Sorenson citrate with shaking for 20 minutes. Light absorption of the extracted supernatant is read at 595 nm. Lymphoma cell growth was evaluated using MTT and cells are incubated for 4 hours. 100 microliters of isopropanol is added, and the extracted supernatant fraction is read at absorption maximum of 595 nm.
(§3) Standard cell culture conditions typically are RPMI 1640 medium, 10% fetal bovine serum, 1% PenStrep, and are performed in a humidified atmosphere containing 5% CO2 at 37° C. Generally, 5,000 cells/well-10,000 cells/well are seeded in 96 well plates in 100 microliter medium/per well for 24 h, or as described in Example 16, unless otherwise noted. Certain cells require specialized media, growth factors, antibiotics, or culture condition adjustments, as will be apparent to a person of ordinary skill in the art.
as §2, with “Cell” for “The crystal violet assay is performed as follows, unless otherwise noted. Cell”, “cultured as follows. […]” for “supplemented with RPMI 1640 medium, 10% fetal bovine serum, 1% PenStrep, and placed in a humidified atmosphere containing 5% CO2 at 37° C.”, “is” for “was”

Daudi = experiment: Lymphoma cell growth IC50 (MTT); type: cell-based, human
From the text: as §1, §2, §3
as §2, with “Cell” for “The crystal violet assay is performed as follows, unless otherwise noted. Cell”, “cultured as follows. […]” for “supplemented with RPMI 1640 medium, 10% fetal bovine serum, 1% PenStrep, and placed in a humidified atmosphere containing 5% CO2 at 37° C.”, “is” for “was”

Namalwa = experiment: Lymphoma cell growth IC50 (MTT); type: cell-based, human
From the text: as §1, §2, §3
as §2, with “Cell” for “The crystal violet assay is performed as follows, unless otherwise noted. Cell”, “cultured as follows. […]” for “supplemented with RPMI 1640 medium, 10% fetal bovine serum, 1% PenStrep, and placed in a humidified atmosphere containing 5% CO2 at 37° C.”, “is” for “was”

Raji = experiment: Lymphoma cell growth IC50 (MTT); type: cell-based, human
From the text: as §1, §2, §3
as §2, with “Cell” for “The crystal violet assay is performed as follows, unless otherwise noted. Cell”, “cultured as follows. […]” for “supplemented with RPMI 1640 medium, 10% fetal bovine serum, 1% PenStrep, and placed in a humidified atmosphere containing 5% CO2 at 37° C.”, “is” for “was”

Ramos = experiment: Lymphoma cell growth IC50 (MTT); type: cell-based, human
From the text: as §1, §2, §3
as §2, with “Cell” for “The crystal violet assay is performed as follows, unless otherwise noted. Cell”, “cultured as follows. […]” for “supplemented with RPMI 1640 medium, 10% fetal bovine serum, 1% PenStrep, and placed in a humidified atmosphere containing 5% CO2 at 37° C.”, “is” for “was”

ACHN = experiment: Renal cancer cell growth IC50 (crystal violet); type: cell-based, human
From the text: as §1, §2, §3
as §2, with “Cell” for “The crystal violet assay is performed as follows, unless otherwise noted. Cell”, “cultured as follows. […]” for “supplemented with RPMI 1640 medium, 10% fetal bovine serum, 1% PenStrep, and placed in a humidified atmosphere containing 5% CO2 at 37° C.”, “is” for “was”

Caki-1 = experiment: Renal cancer cell growth IC50 (crystal violet); type: cell-based, human; details: Caki-1
From the text: as §1, §2, §3
as §2, with “Cell” for “The crystal violet assay is performed as follows, unless otherwise noted. Cell”, “cultured as follows. […]” for “supplemented with RPMI 1640 medium, 10% fetal bovine serum, 1% PenStrep, and placed in a humidified atmosphere containing 5% CO2 at 37° C.”, “is” for “was”

SKRC = experiment: Renal cancer cell growth IC50 (crystal violet); type: cell-based, human
From the text: as §1, §2, §3
as §2, with “Cell” for “The crystal violet assay is performed as follows, unless otherwise noted. Cell”, “cultured as follows. […]” for “supplemented with RPMI 1640 medium, 10% fetal bovine serum, 1% PenStrep, and placed in a humidified atmosphere containing 5% CO2 at 37° C.”, “is” for “was”

o-786 = experiment: Renal cancer cell growth IC50 (crystal violet); type: cell-based, human
From the text: as §1, §2, §3
as §2, with “Cell” for “The crystal violet assay is performed as follows, unless otherwise noted. Cell”, “cultured as follows. […]” for “supplemented with RPMI 1640 medium, 10% fetal bovine serum, 1% PenStrep, and placed in a humidified atmosphere containing 5% CO2 at 37° C.”, “is” for “was”

22Rv1 = experiment: Cancer cell growth IC50 (crystal violet); type: cell-based, human; details: Example 15
From the text: as §1
The crystal violet assay is performed as follows, unless otherwise noted. Cell lines are supplemented with RPMI 1640 medium, 10% fetal bovine serum, 1% PenStrep, and placed in a humidified atmosphere containing 5% CO2 at 37° C. 5,000 cells/well renal cancer cells and 10,000 cells/well lymphoma cells are seeded in 96 well plates in 100 microliter medium/per well for 24 h. […] Renal cancer cells are fixed with 3.7% paraformaldehyde for 15 minutes and are stained with Crystal violet solution (0.5% in 25% methanol) for 30 minutes. After rinsing with water cell layers are dried and decolorized with Sorenson citrate with shaking for 20 minutes. Light absorption of the extracted supernatant is read at 595 nm. Lymphoma cell growth was evaluated using MTT and cells are incubated for 4 hours. 100 microliters of isopropanol is added, and the extracted supernatant fraction is read at absorption maximum of 595 nm. […]

CAOV-3 = experiment: Cancer cell growth IC50 (crystal violet); type: cell-based; details: Example 15
From the text: as §1, §2, §3

OV90 = experiment: Ovarian cancer cell growth IC50 (crystal violet); type: cell-based, human
From the text: as §1, §3
(§4) OV90 and OVCA433 are grown in vitro according to their standard culturing conditions, and an assay such as the crystal violet assay is performed.

OVCA 433 = experiment: Ovarian cancer cell growth IC50 (crystal violet); type: cell-based, human
From the text: as §1, §3, §4

[2] = system: Ramos, a B-cell lymphoma, cultured as 3-D spheroids; experiment: Cell viability IC50 in 3-D spheroids; type: cell-based, human; details: Ramos 3-D spheroids; 72 h; single agent
From the text: as §1
Cancer cells were Ramos, a B-cell lymphoma, cultured as 3-D spheroids, cultured according to their standard culturing conditions.

[3] = system: renal cancer and B-cell lymphoma cell lines; experiment: Growth IC50 in renal cancer and B-cell lymphoma panel; type: cell-based, human; details: all cancer cell lines of Example 16; 72 h; read-out: IC50 across renal cancer and B-cell lymphoma cell lines
Procedure: as §2, with “Cell” for “The crystal violet assay is performed as follows, unless otherwise noted. Cell”, “cultured as follows. […]” for “supplemented with RPMI 1640 medium, 10% fetal bovine serum, 1% PenStrep, and placed in a humidified atmosphere containing 5% CO2 at 37° C.”, “is” for “was”

Namalwa xenograft tumors = experiment: Burkitt lymphoma xenograft tumor growth; type: in vivo; details: Example 5; NCr Nu/Nu (10 μM) and NOD-SCID (5 μM) mice; 2 times a week; versus CIS or vehicle, p<0.05
Procedure: Representative results are illustrated in FIG. 5. DZ-CIS is administered to tumors as follows. 15 mice each (NCr Nu/Nu, right panel of FIG. 5, and NOD-SCID, left panel) are injected with Human Burkitt lymphoma cell line, Namalwa cells (10^3), producing 4 xenograft tumors per mouse.

[4] = system: normal mouse kidney and liver; experiment: Immunohistochemical staining of normal kidney and liver; type: in vivo; details: mice harbored with human Burkitt's lymphoma
From the text: These normal kidney and liver tissues were obtained from mice harbored with human Burkitt's lymphoma.

[5] = 72 hours, read-out: Half maximal inhibitory concentration (IC50)

N.N.[Cl][Pt][Cl] [CIS, cis-diamminedichloridoplatinum (II)]
IC50 (A549; A549 parental, single agent, mean ± SEM, read-out: IC50): 26 ± 1.2 µM
IC50 (A549; read-out: IC50 of CIS, Mean, A549, CIS alone): 26 µM
IC50 ([1]; A549/DDP (Cisplatin Resistant), single agent, mean ± SEM, read-out: IC50): 90 ± 1 µM
IC50 ([1]; read-out: IC50 of CIS, Mean, A549/DDP, CIS alone): 87.6 µM
IC50 (CA-46; CA-46, 72 hours, read-out: Half maximal inhibitory concentration (IC50)): > 64 µM
IC50 (CA-46; Example 15, CA46, read-out: IC50): > 64 µM
IC50 (Daudi; [5]): > 64 µM
IC50 (Daudi; Example 15, read-out: IC50): > 64 µM
IC50 (Namalwa; [5]): > 64 µM
IC50 (Namalwa; Example 15, read-out: IC50): > 64 µM
IC50 (Raji; [5]): > 64 µM
IC50 (Raji; Example 15, read-out: IC50): > 64 µM
IC50 (Ramos; [5]): > 64 µM
IC50 (Ramos; Example 15, read-out: IC50): > 64 µM
IC50 (ACHN; [5]): > 64 µM
IC50 (ACHN; Example 15, read-out: IC50): > 64 µM
IC50 (Caki-1; [5]): > 64 µM
IC50 (Caki-1; Example 15, read-out: IC50): > 64 µM
IC50 (SKRC; [5]): > 64 µM
IC50 (SKRC; Example 15, read-out: IC50): > 64 µM
IC50 (o-786; Example 15, O-786, read-out: IC50): > 64 µM
IC50 (o-786; o-786, 72 hours, read-out: Half maximal inhibitory concentration (IC50)): > 64 µM
IC50 (22Rv1): > 64 µM
IC50 (CAOV-3): 13.4 µM
IC50 (OV90; 72 h): > 64 µM
IC50 (OV90; Example 15): > 64 µM
IC50 (OVCA 433; Example 15, OV433): > 64 µM
IC50 (OVCA 433; OVCA 433, 72 h): > 64 µM
IC50 [2]: 81.5 µM
IC50 [3]: > 64 µM
Tumor volume, Namalwa xenograft (Namalwa xenograft tumors): not CIS alone
Apoptosis markers (cleaved caspas-3 and M30) / damage in normal kidney and liver [4]: elevated

Reference: patent US12121510B2 (Cedars-Sinai Medical Center, priority 2016, dated 2024)
